Where two headings read alike, the source gives them in different places.
How the values were obtained:
[1] = tested on: human skin; conditions: in vivo
[2] = Freezing point of caustic solutions; type: physicochemical
[3] = background statement on sodium hydroxide solutions, cited from earlier work

Row | Compound | effect on human skin [1] | freezing point [2] [°C] | freeze point (begins to freeze / will freeze) ([3]; listed as 25% solution) [Celsius] | freeze point (begins to freeze / will freeze) [3] [Celsius]
1 | [Na+].[OH-] [25 wt % NaOH, sodium hydroxide] | immediate burning of the skin, followed with scarring | −18 | −17 | –
2 | [Na+].[OH-] [50% sodium hydroxide solution, sodium hydroxide] | – | – | – | 14
